# In US20110318738A1, “IDENTIFICATION AND REGULATION OF A NOVEL DNA DEMETHYLASE SYSTEM” (University of Utah Research Foundation, priority 2008, published 2011):
# How the values were obtained:
# [1] = system: apc^mcr zebrafish embryos; test: Whole mount in situ hybridization in apc mutant embryos; details: for gadd45α expression (% of embryos) / aid expression (% of embryos): apc^wt + DMSO 94%; for gadd45α expression (% of embryos): apc^mcr + DMSO 9%; for aid expression (% of embryos): apc^mcr + DMSO 17%; for mbd4 expression (% of embryos): apc^wt + DMSO 95%, apc^mcr + DMSO 3%; for irbp (% of embryos): apc^sib 96%
# [2] = system: apc^mcr zebrafish embryos; test: Quantitative RT-PCR in apc mutant embryos after drug treatment; assay type: in vivo; details: for expression of aid, gadd45α and mbd4: all-trans retinoic acid 1 μM or NS-398 10 μM, FIG. 11A
# Description: Quantitative RT-PCR primers for amplification of zebrafish rdh1l (Nadauld et al., 2005), human DHRS9 (Jette et al., 2004) 28S rRNA (Eisinger et al., 2006), and h18S rRNA (Delaunay et al., 2000) were described previously, and are (hereby incorporated by reference in its entirety into this application). A template-free negative control was included in each experiment.
# (§1) RNA from embryos or human adenoma tissues was isolated using Trizol (Invitrogen). cDNA library was prepared using Superscript III kit (Invitrogen). RT-PCR was performed on a Roche light cycler.
# [3] = system: DLD1, SW480, and HT29 cells; test: Quantitative PCR measuring DHRS9 (RDHL) expression in colon cancer cell lines; assay type: cell-based, human; details: pargyline 3 mM, FIG. 14B
# zebrafish embryos = test: Whole mount in situ hybridization for neuronal markers in morpholino-injected embryos; assay type: in vivo; details: morpholino injected at single-cell stage, 24 hpf; for Sox-2: embryos showing positive staining for the marker: Control Mo 97%; for Neurogenin-1: embryos showing positive staining for the marker: Control Mo 100%
# Description: Wild-type zebrafish (Tuebingen strain) were maintained in a 14 hr:10 hr light:dark cycle in a Z-Mod at 28.5° C. Embryos were injected at single-cell stage and then grown in a 28.5° C. incubator. Morpholinos were obtained from Gene-tools LLC Ltd. For these experiments, morpholino sequences were designed against the following:
# Whole mount in situ hybridization was performed as described earlier in Rai et al., 2006 with digoxigenin (Roche) labeled probes against neurogenin-1 and sox-2.
# To address whether AID/Apobec enzymes, Gadd45, or zebrafish Mbd4 have a role in the control of DNA methylation during normal zebrafish development, a subset of the enzyme family members were knocked down (by morpholino injection) and their impact on development was examined. Either AID, Gadd45α, or Mbd4 knockdown caused the loss of neurons at 24 hpf, shown by the absence of pro-neuronal markers such as neurogenin-1 or sox-2. […] As neurons form in mice lacking Mbd4 (or AID), zebrafish may rely more on these proteins for neurogenesis than do mice, or alternatively, neurogenesis in zebrafish may be more sensitive to misregulation of DNA methylation levels. […] The percentage listed depicts embryos showing positive staining for the marker indicated.
# wild type embryos = test: Quantitative RT-PCR in RA deficiency models; assay type: in vivo, zebrafish; details: DEAB treated wild type embryos; FIG. 11B
# Description: (§2) Expression of genes are first normalized to 28S, and then to the control embryo mRNA/28S ratio, valued as 1. […] In panels A-C, expression of genes are normalized first to 28S (A-B) or 18S (C) and then to the control sample values as 1.
# as §1
# apc mutants (72 hpf) = test: MeDIP-qPCR for various genes in apc mutants; assay type: in vivo, zebrafish; details: apc mutant embryos treated with RA; FIG. 11D
# Description: as §2
# This procedure was described in Weber et al., 2007. Briefly, Dynabeads (conjugated with sheep anti-mouse secondary antibody, Invitrogen) were incubated with 10 μg of 5MeC antibody (Eurogentec) for 2 hrs, washed, and then incubated with 4 μg of sonicated DNA (300 bp-1000 bp fragments) overnight Immunoprecipitated DNA was amplified using for whole genome amplification kit (Sigma Aldrich). Following amplification, 2 μg of amplified DNA was labeled with Cy5, and 2 μg of input DNA was labeled with Cy3 (Bio labs). Samples were competitively hybridized to 244K oligonucleotide promoter arrays (Agilent Inc).
# HT29 and DLD1 = test: Quantitative RT-PCR for AID, MBD4 and GADD45α in RA responsive colon carcinoma cell lines; assay type: cell-based; details: human colon cancer cell lines, ATRA 5 μM each day for two days; FIG. 11C
# [4] = apc^mcr embryos, Table 6, apc^mcr 0%
# [5] = apc^mcr embryos, Table 6, apc^sib 100%, apc^mcr 0%
compound,measurement,setting,value
"CS(=O)(=O)Nc1ccc([N+](=O)[O-])cc1OC1CCCCC1 [Cox-2 inh, NS-398]",gadd45α expression (% of embryos),"[1]; apc^mcr embryos, Table 4",8%
same,aid expression (% of embryos),"[1]; apc^mcr embryos, Table 4",20%
same,mbd4 expression (% of embryos),"[1]; apc^mcr embryos, Table 4",9%%
same,"expression of aid, gadd45α and mbd4",[2]; apc mutants,little effect
C#CCN(C)Cc1ccccc1 [pargyline],expression of fabp2,"[1]; apc^mcr zebrafish embryos, pargyline 3 mM",rescued expression
same,expression of rdh1l,"[2]; apc^mcr zebrafish embryos, pargyline 3 mM, FIG. 15A",rescued expression
same,DHRS9 expression,[3],upregulated
Pitx2 Mo: morpholino 5′-TTTATCAAACTTACTCGGACTCTGG-3′ (SEQ ID NO. 15) (all phosphorodiamidate morpholino (PMO)),cyclinD1 (% of embryos),"[1]; apc^mcr embryos, Table 5, apc^wt + Control Mo 96%, mutant + Control Mo 17%",90%
same,Pcna (% of embryos),"[1]; apc^mcr embryos, Table 5, apc^wt + Control Mo 97%, mutant + Control Mo 10%",85%
Groucho2 mo: morpholino 5′-GCCCTGTGGATACATCTTGAAATGT-3′ (SEQ ID NO. 17) (all phosphorodiamidate morpholino (PMO)),irbp (% of embryos),[1]; [4],5%
same,fabp2 (% of embryos),[1]; [5],95%
same,rdh1l (% of embryos),[1]; [5],83%
same,trypsin (% of embryos),[1]; [5],86%
"Gadd45α Mo: morpholino against Gadd45α, 5′-ATATAAAAACATACCTTTCCGTTGC-3′ (SEQ ID No. 4) (all phosphorodiamidate morpholino (PMO))",Sox-2: embryos showing positive staining for the marker,zebrafish embryos,33% (n = 48)
same,Neurogenin-1: embryos showing positive staining for the marker,zebrafish embryos,11% (n = 52)
Corest mo: morpholino 5′-CCTTCTCTAACATTGCGGGCATCTT-3′ (SEQ ID NO. 19) (all phosphorodiamidate morpholino (PMO)),irbp (% of embryos),[1]; [4],11%
same,fabp2 (% of embryos),[1]; [5],79%
"CCN(CC)c1ccc(C=O)cc1 [DEAB, 4-(diethylamino) benzaldehyde]",expression of the demethylase genes,wild type embryos,increased expression
"CC1=C(/C=C/C(C)=C/C=C/C(C)=C/C(=O)O)C(C)(C)CCC1 [ATRA, all-trans retinoic acid]",DNA methylation on the panel of genes implicated in intestinal differentiation and proliferation,apc mutants (72 hpf),reversed the loss of DNA methylation
same,expression of the demethylase genes,HT29 and DLD1,suppressed expression
same,gadd45α expression (% of embryos),"[1]; apc^mcr embryos, Table 4",91%
same,aid expression (% of embryos),"[1]; apc^mcr embryos, Table 4",85%
same,mbd4 expression (% of embryos),"[1]; apc^mcr embryos, Table 4",65%
same,dnmt1 expression (% of embryos),"[1]; apc^mcr embryos, Table 4, apc^wt + DMSO 97%, apc^mcr + DMSO 11%",89%
same,expression of aldh1a2,"[1]; apc^mcr mutant, rdh1l morphant or nls mutant zebrafish treated with RA",decreased the expression
same,Cebpβ expression,"[2]; APC mutants, RA treatment, FIG. 12A",down regulated
same,dnmt1 expression,"[2]; apc mutants, RA treatment",did not restore
same,"expression of aid, gadd45α and mbd4",[2]; apc mutants,greatly reduced
same,expression of pou5f1,"[2]; apc^mcr mutant embryos, ATRA 1 μM, FIG. 12A",reduced the expression
"AID Mo: morpholino against AID, 5′-GTTTTGTTTTCGCTTACCTGTCCAG-3′ (SEQ ID No. 1) (all phosphorodiamidate morpholino (PMO))",Sox-2: embryos showing positive staining for the marker,zebrafish embryos,13% (n = 38)
same,Neurogenin-1: embryos showing positive staining for the marker,zebrafish embryos,12% (n = 50)
CC1=C(/C=C/C(C)=C/C=C/C(C)=C/C=O)C(C)(C)CCC1 [RAL],intestinal differentiation marked by fabp2 expression,[1]; apc^mcr embryos treated with exogenous RAL,partially restored
same,fabp2 (% of embryos),"[1]; apc^mcr embryos, Table 5, apc^wt + Control Mo 99%, mutant + Control Mo 3%",59%
Lsd1 mo: morpholino 5′-GGTCTGACTTCTTATTGGACAACAT-3′ (SEQ ID NO. 18) (all phosphorodiamidate morpholino (PMO)),irbp (% of embryos),[1]; [4],8%
same,fabp2 (% of embryos),[1]; [5],83%
"Mbd4 Mo: morpholino against zMbd4, 5′-AGAGAGAAACACACCTGCTCGCTGC-3′ (SEQ ID No. 8) (all phosphorodiamidate morpholino (PMO))",Sox-2: embryos showing positive staining for the marker,zebrafish embryos,15% (n = 53)
same,Neurogenin-1: embryos showing positive staining for the marker,zebrafish embryos,14% (n = 43)
Pou5f1 Mo: morpholino 5′-CGCTCTCTCCGTCATCTTTCCGCTA-3′ (SEQ ID NO. 14) (all phosphorodiamidate morpholino (PMO)),gadd45α expression (% of embryos),"[1]; apc^mcr embryos, Table 4",83%
same,aid expression (% of embryos),"[1]; apc^mcr embryos, Table 4",81%
same,mbd4 expression (% of embryos),"[1]; apc^mcr embryos, Table 4",67%
